Experimental data reported in paper PMC10291552, “Computational Design, Synthesis, and Biological Evaluation of Diimidazole Analogues Endowed with Dual PCSK9/HMG-CoAR-Inhibiting Activity” (Journal of Medicinal Chemistry, 2023).
Entries after “also recorded” stand apart in the source; their conditions may differ.

Tests used:
[1] = molecular target: T1, HMG-CoAR (catalytic domain) (Homo sapiens, UniProt P04035); assay: HMG-CoAR activity assay (Sigma kit, NADPH oxidation at 340 nm); type: biochemical; settings: 10–500 μM tested, 37 °C
T1 construct: and finally, HMG-CoAR (catalytic domain) (2 μL); purchased Sigma Aldrich
T1 sequence (P04035 426-888 limits assumed): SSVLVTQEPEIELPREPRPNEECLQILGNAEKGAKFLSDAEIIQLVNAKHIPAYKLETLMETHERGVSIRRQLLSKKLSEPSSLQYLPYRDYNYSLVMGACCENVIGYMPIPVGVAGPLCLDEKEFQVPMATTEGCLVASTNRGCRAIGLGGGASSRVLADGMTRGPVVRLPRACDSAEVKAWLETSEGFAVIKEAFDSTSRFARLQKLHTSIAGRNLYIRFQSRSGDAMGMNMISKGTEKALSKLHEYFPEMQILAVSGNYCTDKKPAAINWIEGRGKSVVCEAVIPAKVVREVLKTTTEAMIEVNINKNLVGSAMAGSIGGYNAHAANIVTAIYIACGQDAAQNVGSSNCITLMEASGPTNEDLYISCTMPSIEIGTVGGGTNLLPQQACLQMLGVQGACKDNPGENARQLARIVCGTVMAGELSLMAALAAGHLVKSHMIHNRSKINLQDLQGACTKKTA
Protocol: The experiments were carried out following the manufacturer’s instructions and optimized protocol.[43] The assay buffer, NADPH, substrate solution, and HMG-CoAR were provided in the HMG-CoAR Assay Kit (Sigma Aldrich SRL, Milan, Italy). The experiments were carried out following the manufacturer’s instructions at 37 °C. In particular, each reaction (200 μL) was prepared adding the reagents in the following order: 1× assay buffer, a 10–500 μM dose of sonicated Dim analogues or vehicle (C), NADPH (4 μL), the substrate solution (12 μL), and finally, HMG-CoAR (catalytic domain) (2 μL). Subsequently, the samples were mixed, and the absorbance at 340 nm was read by a microplate reader (Synergy H1, Winooski, VT, USA) at times of 0 and 10 min. The HMGCoAR-dependent oxidation of NADPH and the inhibition properties of the peptides were measured by absorbance reduction, which is directly proportional to enzyme activity.

HepG2 cells = assay: HepG2 cell viability (MTT assay); type: cell-based, human; settings: 48 h treatment, 0.1 nM to 10 μM, versus control cells
Protocol: Figure 3 HepG2 cell viability after the Dim3 (A) and Dim16 (B) treatments. Bar graphs indicating the results of the cell viability assay of HepG2 cells after Dim3 and Dim16 (0.1–10,000 nM) treatment for 48 h. The data points represent the mean ± SD of the three experiments in triplicate. ns: not significant.
The HepG2 cell line was bought from ATCC (HB-8065, ATCC from LGC Standards, Milan, Italy) and cultured in DMEM high glucose with stable L-glutamine supplemented with 10% FBS, 100 U/mL penicillin, and 100 μg/mL streptomycin (complete growth medium) with incubation at 37 °C under a 5% CO2 atmosphere.

[2] = tested on: LDLR localized on HepG2 surfaces; assay: In-cell Western assay of LDLR on the HepG2 cell surface in the presence of PCSK9; type: cell-based, human; settings: for LDLR levels on HepG2 surface: co-incubated with PCSK9 4 μg/mL, relative to untreated control cells; for fold more active than Rim13: LDLR restoration and LDL uptake in HepG2 cells, versus Rim13 ref 25
Protocol: For the experiments, a total of 3 × 10^4 HepG2 cells/well were seeded in 96-well plates. The following day, the cells were washed with PBS and then starved overnight (O/N) in DMEM without FBS and antibiotics. After starvation, the HepG2 cells were treated with 4.0 μg/mL PCSK9-WT and 4.0 μg/mL PCSK9 + diimidazole analogues and vehicle (H2O) for 2 h at 37 °C under a 5% CO2 atmosphere. Subsequently, they were fixed in 4% paraformaldehyde for 20 min at room temperature (RT). Cells were washed 5 times with 100 μL of PBS/well (each wash was for 5 min at RT), and the endogenous peroxide activity was quenched by adding 3% H2O2 for 20 min at RT. Non-specific sites were blocked with 100 μL/well of 5% bovine serum albumin (BSA, Sigma) in PBS for 1.5 h at RT. LDLR primary antibody solution (1:3000 in 5% BSA in PBS, 25 μL/well) was incubated O/N at +4 °C. Subsequently, the primary antibody solution was discarded, and each sample was washed 5 times with 100 μL/well of PBS (each wash was for 5 min at RT). Goat anti-rabbit Ig-HRP secondary antibody solution (Santa Cruz) (1:6000 in 5% BSA in PBS, 50 μL/well) was added and incubated 1 h at RT. The secondary antibody solution was washed 5 times with 100 μL/well of PBS (each wash for 5 min at RT). Freshly prepared TMB substrate (Pierce, 100 μL/well) was added, and the plate was incubated at RT until the desired color was developed. The reaction was stopped with 2 M H2SO4, and then the absorbance at 450 nm was measured using a microplate reader (Synergy H1, Winooski, VT, USA). After the reading, the cells were stained by adding 1× Janus Green stain, incubating for 5 min at RT. The dye was removed, and the sample was washed 5 times with water. Afterward, 100 μL of 0.5 M HCl for well was added, and the solution was incubated for 10 min. After 10 s of shaking, the OD at 595 nm was measured using the microplate reader (Synergy H1, Winooski, VT, USA).

C#Cc1ncc(-c2ncc(-c3ccc4ccccc4c3)n2CCCC(C)(C)C)n1CCCCCNC [Dim3, 5-(1-(4,4-Dimethylpentyl)-2′-ethynyl-5-(naphthalen-2-yl)-1H,3′H-[2,4′-biimidazol]-3′-yl)-N-methylpentan-1-amine]
HMG-CoAR activity IC50 [1]: no in vitro inhibitory activity; also recorded: not active | HepG2 cell vitality (HepG2 cells): safe for HepG2 cells and safe | LDLR levels on HepG2 surface ([2]; 1 nM): 77.87 ± 3.04% | LDLR levels on HepG2 surface ([2]; 10 nM): 101.1 ± 15.06% | fold more active than Rim13 [2]: 100

CNCCCCCn1c(-c2ncc(-c3ccc4ccccc4c3)n2CCCC(C)(C)C)cnc1I [Dim16, 5-(1-(4,4-Dimethylpentyl)-2′-iodo-5-(naphthalen-2-yl)-1H,3′H-[2,4′-biimidazol]-3′-yl)-N-methylpentan-1-amine]
IC50 [1]: 147 ± 75.1 µM | HepG2 cell vitality (HepG2 cells): safe for HepG2 cells and safe | LDLR levels on HepG2 surface ([2]; 1 nM): 91.1 ± 2.22% | LDLR levels on HepG2 surface ([2]; 10 nM): 87.17 ± 7.42% | fold more active than Rim13 [2]: 100 | fold more effective than Dim3 in restoring LDLR protein level on cell surface ([2]; cellular level, Figure 4): 10
